pEC50: −log10 of the molar value.
Target: T1, PFAS (Homo sapiens, UniProt O15067)
T1 construct: endogenous in cells; host or cells: HL-60 (ATCC CCL-240)
T1 sequence (O15067 1-1338): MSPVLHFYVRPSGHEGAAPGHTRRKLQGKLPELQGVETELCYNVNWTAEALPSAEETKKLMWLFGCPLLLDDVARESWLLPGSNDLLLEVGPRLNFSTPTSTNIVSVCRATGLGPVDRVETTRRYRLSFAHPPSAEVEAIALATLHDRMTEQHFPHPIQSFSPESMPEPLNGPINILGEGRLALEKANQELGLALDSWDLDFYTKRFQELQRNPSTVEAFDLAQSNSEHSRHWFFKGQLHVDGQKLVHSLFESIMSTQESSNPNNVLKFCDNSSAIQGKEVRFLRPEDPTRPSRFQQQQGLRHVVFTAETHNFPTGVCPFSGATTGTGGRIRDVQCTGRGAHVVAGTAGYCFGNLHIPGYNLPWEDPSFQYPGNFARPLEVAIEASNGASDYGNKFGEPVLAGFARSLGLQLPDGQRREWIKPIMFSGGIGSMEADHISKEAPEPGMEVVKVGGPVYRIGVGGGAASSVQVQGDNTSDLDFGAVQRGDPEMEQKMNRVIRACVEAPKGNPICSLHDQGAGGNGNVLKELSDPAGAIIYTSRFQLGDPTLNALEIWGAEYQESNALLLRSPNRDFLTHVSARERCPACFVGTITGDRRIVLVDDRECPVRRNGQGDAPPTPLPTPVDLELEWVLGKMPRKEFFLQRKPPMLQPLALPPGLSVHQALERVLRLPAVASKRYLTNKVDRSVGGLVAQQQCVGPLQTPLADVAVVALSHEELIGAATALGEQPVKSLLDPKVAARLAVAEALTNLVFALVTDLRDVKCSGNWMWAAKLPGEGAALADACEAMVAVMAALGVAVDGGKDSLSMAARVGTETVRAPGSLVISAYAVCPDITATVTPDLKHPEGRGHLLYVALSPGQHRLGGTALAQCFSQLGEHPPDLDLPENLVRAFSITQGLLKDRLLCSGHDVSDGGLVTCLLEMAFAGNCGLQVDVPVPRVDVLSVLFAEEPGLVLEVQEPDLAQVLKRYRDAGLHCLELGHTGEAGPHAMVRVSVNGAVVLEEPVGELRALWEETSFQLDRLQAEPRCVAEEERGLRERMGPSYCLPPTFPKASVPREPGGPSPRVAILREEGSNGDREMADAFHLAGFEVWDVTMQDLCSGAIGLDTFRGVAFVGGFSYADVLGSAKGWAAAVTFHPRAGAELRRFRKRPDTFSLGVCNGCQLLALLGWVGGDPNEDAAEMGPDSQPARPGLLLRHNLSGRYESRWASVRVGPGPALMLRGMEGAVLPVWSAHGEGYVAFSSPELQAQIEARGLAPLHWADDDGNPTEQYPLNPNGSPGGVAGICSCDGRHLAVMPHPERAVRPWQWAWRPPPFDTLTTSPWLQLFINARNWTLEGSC
Assay: TPP-CCR in living HL-60 cells
Format: cell-based
Text: Therefore, we performed TPP with compound concentration range (TPP-CCR) experiments according to published procedures. In brief, after preparing tryptic peptides from the non-denatured protein fractions (used for immunoblotting in the previous sections) applying the SP3 method, the peptides were labeled using TMT10plex, coding for inhibitor concentration, and the samples belonging to a TMT set were combined, offline high-pH fractionated, and analyzed by MS.
HL-60 cells were expanded as described above for CETSA and TPP-TR to 1.25 million cells per milliliter. […] A number of 2.5 million cells in 2 mL of medium were added to each tube and incubated (1 h, 37 °C). After centrifugation (300 rcf, 3 min, r.t.) and removing all of the supernating culture medium, the cells were washed once with 2 mL and once with 0.5 mL PBS (r.t.) by gently resuspending the cells, followed by centrifugation (300 rcf, 3 min, r.t.) and the complete removal of the supernatants.
After transferring the cells from the 2 mL Eppendorf tubes into correspondingly labeled PCR tubes (tube strips) using 100 µL of ice-cold PBS supplemented with protease inhibitors for resuspending the cells, the samples were further processed as described above for CETSA and TPP-TR, however, by applying a single treatment temperature of 51 °C.
For each sample set comprising ten compound concentration range samples, a same volume of the cell extracts containing the fraction of soluble, non-denatured proteins, corresponding to an average of 5 µg total protein, was used for further analysis. The calculated volume was respectively transferred into PCR tubes of a tube strip and supplemented with SDS sample buffer without DTT and bromophenol blue (final concentrations: 7.5% glycerol, 3% SDS, 37.5 mM Tris/HCl pH 7.0) and ddH2O to a final volume of 10 µL, respectively. Reduction and alkylation were performed by addition of 2.5 µL 100 mM dithiothreitol (DTT; incubation: 20 min, 56 °C, 1000 rpm in an Eppendorf ThermoMixer C, covering the tubes with aluminum foil to minimize condensation in the lids) and 3.33 µL 300 mM iodoacetamide (IAA; incubation: 15 min, r.t., in the dark without shaking), as well as 2.5 µL 100 mM DTT (incubation: 15 min, r.t., without shaking; quenching of excess of IAA). […] The beads were collected and washed (3× 200 µL 80% ethanol p.a. in HPLC-MS grade water, 1 × 200 µL acetonitrile (ACN; HPLC gradient grade)) using a device for handling of magnetic particles [patent US20100200405A1]. The ACN of the last washing step was completely removed by aspiration without letting the beads dry out.
Tryptic digest was performed on-bead by resuspending (use of an ultrasound bath may be required) the beads in 20 µL 50 mM TEAB in HPLC-MS grade water containing 0.1 µg Trypsin/Lys-C mix and 16.5 h incubation at 37 °C and 1000 rpm (Eppendorf ThermoMixer C, covering the tubes with aluminum foil to minimize condensation in the lids). Tryptic fragmentation of proteins was optimized by addition of another 0.1 µg of Trypsin/Lys-C mix in 2 µL 50 mM TEAB and 4 h incubation at 37 °C and 1000 rpm. After centrifugation for about 1 min in a table top centrifuge and magnetic concentration and retention of the beads at the inner tube wall, the supernatants containing the peptides were transferred into new PCR tubes (of tube strips) and were stored at −80 °C. The beads were discarded.
Half of the peptide samples (11 µL containing about 2.5 µg peptides) were transferred into new PCR tubes (of tube strips) and allowed to equilibrate to r.t. TMT labeling reagents were reconstituted as described for the TPP-TR samples, and 1 µL each was added to the reconstituted peptides according to the following scheme and homogenized immediately by aspiration and dispensing:
Peptide separation was performed as described above for the analysis of TPP-TR samples. […]

[1] = living HL-60 cells, […] °C, TMT-MS

Compound: Cc1cnc(Nc2ccc(F)cc2Cl)nc1-c1c[nH]c(C(=O)N[C@H](CO)c2cccc(Cl)c2)c1 [ERK 11e]
- Hill slope (TPP-CCR, living cells, PFAS): 0.30
- pEC50 [1]: 5.93
- Hill slope (PFAS) [1]: 0.30

Source: publication PMC9147192, “Small Molecule Arranged Thermal Proximity Coaggregation (smarTPCA)—A Novel Approach to Characterize Protein–Protein Interactions in Living Cells by Similar Isothermal Dose–Responses” (International Journal of Molecular Sciences, 2022)
